The first test concerns S. aureus MP-513 clinical cErm. The test can be described thus: MIC against S. aureus MP-513 clinical cErm. Type of test: cell-based. The conditions noted are these: Staphylococcus aureus.
`CSC1O[C@H]([C@H](NC(=O)[C@H]2NC[C@@H]3CN(Cc4ccc(N)nc4)CCO[C@H]32)[C@H](C)Cl)C(O)[C@@H](O)[C@H]1O` (some centres unmarked) [FSA-504050] came in with an MIC of over 64 µg/mL.

Regarding `C=CCOC(=O)N1CCO[C@@H]2[C@H](CN[C@@H]2C(=O)N[C@H]([C@H](C)Cl)[C@H]2OC(SC)[C@H](O)[C@H](O)C2O)C1` (some centres unmarked) [FSA-503073], the MIC was over 64 µg/mL.

The test system of a further test is C. difficile BAA 1805. Briefly: MIC against C. difficile BAA 1805. Type of test: cell-based. Conditions: Clostridioides difficile, BAA1805.
Consider `CSC1O[C@H]([C@H](NC(=O)[C@H]2NC[C@@H]3CC(N)CCO[C@H]32)[C@H](C)Cl)C(O)[C@@H](O)[C@H]1O` (some centres unmarked) [FSA-510012], for which the MIC was over 64 µg/mL.

Compound `CNC1CCO[C@@H]2[C@H](CN[C@@H]2C(=O)N[C@H]([C@H](C)Cl)[C@H]2OC(SC)[C@H](O)[C@H](O)C2O)C1` (some centres unmarked) [FSA-510065] registered an MIC of over 64 µg/mL.

A further test has as its system H. influenzae ATCC 49247. The test can be described thus: MIC against H. influenzae ATCC 49247. Type of test: cell-based. The conditions noted are these: Haemophilus influenzae, ATCC49247.
`CSC1O[C@H]([C@H](NC(=O)[C@H]2NC[C@@H]3CC(N)CCO[C@H]32)[C@H](C)Cl)C(O)[C@@H](O)[C@H]1O` (some centres unmarked) [FSA-510012] yielded an MIC of over 64 µg/mL.

`CNC1CCO[C@@H]2[C@H](CN[C@@H]2C(=O)N[C@H]([C@H](C)Cl)[C@H]2OC(SC)[C@H](O)[C@H](O)C2O)C1` (some centres unmarked) [FSA-510065] yielded an MIC of over 64 µg/mL.

For a further test, the system named is S. aureus MP-549 msr(a) USA 300. The test can be described thus: MIC against S. aureus MP-549 msr(a) USA 300. Conditions: Staphylococcus aureus, USA300, S. aureus MP-549 msr(a) USA 300. Type of test: cell-based.
`CSC1O[C@H]([C@H](NC(=O)[C@H]2NC[C@@H]3CC(N)CCO[C@H]32)[C@H](C)Cl)C(O)[C@@H](O)[C@H]1O` (some centres unmarked) [FSA-510012] registered an MIC of over 64 µg/mL.

The compound `CNC1CCO[C@@H]2[C@H](CN[C@@H]2C(=O)N[C@H]([C@H](C)Cl)[C@H]2OC(SC)[C@H](O)[C@H](O)C2O)C1` (some centres unmarked) [FSA-510065] showed an MIC of over 64 µg/mL.

The next test relates to E. faecalis ATCC 29212. Briefly: MIC against E. faecalis ATCC 29212. Type of test: cell-based. The conditions noted are these: Enterococcus faecalis, ATCC29212.
On to `CSC1O[C@H]([C@H](NC(=O)[C@H]2NC[C@@H]3CC(N)CCO[C@H]32)[C@H](C)Cl)C(O)[C@@H](O)[C@H]1O` (some centres unmarked) [FSA-510012], for which the MIC is over 64 µg/mL.

Compound `CNC1CCO[C@@H]2[C@H](CN[C@@H]2C(=O)N[C@H]([C@H](C)Cl)[C@H]2OC(SC)[C@H](O)[C@H](O)C2O)C1` (some centres unmarked) [FSA-510065] came in with an MIC of over 64 µg/mL.

Another test relates to E. coli MP-9 ΔTolC. Briefly: MIC against E. coli MP-9 ΔTolC. Type of test: cell-based. Conditions: Escherichia coli.
In the case of `CSC1O[C@H]([C@H](NC(=O)[C@H]2NC[C@@H]3CC(N)CCO[C@H]32)[C@H](C)Cl)C(O)[C@@H](O)[C@H]1O` (some centres unmarked) [FSA-510012], the MIC is over 64 µg/mL.

In the case of `CSC1O[C@H]([C@H](NC(=O)[C@H]2NC[C@@H]3CN(Cc4ccc(N)nc4)CCO[C@H]32)[C@H](C)Cl)C(O)[C@@H](O)[C@H]1O` (some centres unmarked) [FSA-504050], the MIC is over 64 µg/mL.

`CNC1CCO[C@@H]2[C@H](CN[C@@H]2C(=O)N[C@H]([C@H](C)Cl)[C@H]2OC(SC)[C@H](O)[C@H](O)C2O)C1` (some centres unmarked) [FSA-510065] gave an MIC of over 64 µg/mL.

Consider `C=CCOC(=O)N1CCO[C@@H]2[C@H](CN[C@@H]2C(=O)N[C@H]([C@H](C)Cl)[C@H]2OC(SC)[C@H](O)[C@H](O)C2O)C1` (some centres unmarked) [FSA-503073], for which the MIC was over 64 µg/mL.

The next test has as its system S. pneumoniae ATCC 49619. The test can be described thus: MIC against S. pneumoniae ATCC 49619. Type of test: cell-based. Conditions: Streptococcus pneumoniae, ATCC49619.
Consider `CSC1O[C@H]([C@H](NC(=O)[C@H]2NC[C@@H]3CC(N)CCO[C@H]32)[C@H](C)Cl)C(O)[C@@H](O)[C@H]1O` (some centres unmarked) [FSA-510012], for which the MIC is over 64 µg/mL.

Consider `CNC1CCO[C@@H]2[C@H](CN[C@@H]2C(=O)N[C@H]([C@H](C)Cl)[C@H]2OC(SC)[C@H](O)[C@H](O)C2O)C1` (some centres unmarked) [FSA-510065], for which the MIC is over 64 µg/mL.

A further test relates to P. aeruginosa ATCC 27853. The test can be described thus: MIC against P. aeruginosa ATCC 27853. Type of test: cell-based. Conditions: Pseudomonas aeruginosa, ATCC27853.
For `CSC1O[C@H]([C@H](NC(=O)[C@H]2NC[C@@H]3CN(Cc4ccc(N)nc4)CCO[C@H]32)[C@H](C)Cl)C(O)[C@@H](O)[C@H]1O` (some centres unmarked) [FSA-504050], the MIC is over 64 µg/mL.

`C=CCOC(=O)N1CCO[C@@H]2[C@H](CN[C@@H]2C(=O)N[C@H]([C@H](C)Cl)[C@H]2OC(SC)[C@H](O)[C@H](O)C2O)C1` (some centres unmarked) [FSA-503073] returned an MIC of over 64 µg/mL.

A further test relates to S. aureus ATCC 29213. Briefly: MIC against S. aureus ATCC 29213. Type of test: cell-based. The conditions noted are these: Staphylococcus aureus, ATCC29213.
As to `CSC1O[C@H]([C@H](NC(=O)[C@H]2NC[C@@H]3CC(N)CCO[C@H]32)[C@H](C)Cl)C(O)[C@@H](O)[C@H]1O` (some centres unmarked) [FSA-510012], the MIC was over 64 µg/mL.

With `CNC1CCO[C@@H]2[C@H](CN[C@@H]2C(=O)N[C@H]([C@H](C)Cl)[C@H]2OC(SC)[C@H](O)[C@H](O)C2O)C1` (some centres unmarked) [FSA-510065], the MIC is over 64 µg/mL.

Another test concerns K. pneumoniae ATCC 10031. The test can be described thus: MIC against K. pneumoniae ATCC 10031. Type of test: cell-based. Conditions: Klebsiella pneumoniae, ATCC10031.
`CSC1O[C@H]([C@H](NC(=O)[C@H]2NC[C@@H]3CC(N)CCO[C@H]32)[C@H](C)Cl)C(O)[C@@H](O)[C@H]1O` (some centres unmarked) [FSA-510012]: the MIC was over 64 µg/mL.

`CSC1O[C@H]([C@H](NC(=O)[C@H]2NC[C@@H]3CN(Cc4ccc(N)nc4)CCO[C@H]32)[C@H](C)Cl)C(O)[C@@H](O)[C@H]1O` (some centres unmarked) [FSA-504050] gave an MIC of over 64 µg/mL.

With `CNC1CCO[C@@H]2[C@H](CN[C@@H]2C(=O)N[C@H]([C@H](C)Cl)[C@H]2OC(SC)[C@H](O)[C@H](O)C2O)C1` (some centres unmarked) [FSA-510065], the MIC is over 64 µg/mL.

`C=CCOC(=O)N1CCO[C@@H]2[C@H](CN[C@@H]2C(=O)N[C@H]([C@H](C)Cl)[C@H]2OC(SC)[C@H](O)[C@H](O)C2O)C1` (some centres unmarked) [FSA-503073] gave an MIC of over 64 µg/mL.

In another test the test system is E. coli ATCC 25922. The test can be described thus: MIC against E. coli ATCC 25922. Type of test: cell-based. The conditions noted are these: Escherichia coli, ATCC25922.
As to `CSC1O[C@H]([C@H](NC(=O)[C@H]2NC[C@@H]3CC(N)CCO[C@H]32)[C@H](C)Cl)C(O)[C@@H](O)[C@H]1O` (some centres unmarked) [FSA-510012], the MIC is over 64 µg/mL.

Compound `CSC1O[C@H]([C@H](NC(=O)[C@H]2NC[C@@H]3CN(Cc4ccc(N)nc4)CCO[C@H]32)[C@H](C)Cl)C(O)[C@@H](O)[C@H]1O` (some centres unmarked) [FSA-504050] yielded an MIC of over 64 µg/mL.

Consider `CNC1CCO[C@@H]2[C@H](CN[C@@H]2C(=O)N[C@H]([C@H](C)Cl)[C@H]2OC(SC)[C@H](O)[C@H](O)C2O)C1` (some centres unmarked) [FSA-510065], for which the MIC is over 64 µg/mL.

Compound `C=CCOC(=O)N1CCO[C@@H]2[C@H](CN[C@@H]2C(=O)N[C@H]([C@H](C)Cl)[C@H]2OC(SC)[C@H](O)[C@H](O)C2O)C1` (some centres unmarked) [FSA-503073] gave an MIC of over 64 µg/mL.

Another test concerns S. aureus BAA 977 iErmA. Briefly: MIC against S. aureus BAA 977 iErmA. Type of test: cell-based. Conditions: Staphylococcus aureus, BAA977.
`CSC1O[C@H]([C@H](NC(=O)[C@H]2NC[C@@H]3CC(N)CCO[C@H]32)[C@H](C)Cl)C(O)[C@@H](O)[C@H]1O` (some centres unmarked) [FSA-510012] gave an MIC of over 64 µg/mL.

`CNC1CCO[C@@H]2[C@H](CN[C@@H]2C(=O)N[C@H]([C@H](C)Cl)[C@H]2OC(SC)[C@H](O)[C@H](O)C2O)C1` (some centres unmarked) [FSA-510065] displayed an MIC of over 64 µg/mL.

The subject of the next test is E. coli MP-74 LptD mutant. The test can be described thus: MIC against E. coli MP-74 LptD mutant. The conditions noted are these: Escherichia coli. Type of test: cell-based.
`CSC1O[C@H]([C@H](NC(=O)[C@H]2NC[C@@H]3CC(N)CCO[C@H]32)[C@H](C)Cl)C(O)[C@@H](O)[C@H]1O` (some centres unmarked) [FSA-510012] returned an MIC of over 64 µg/mL.

`CNC1CCO[C@@H]2[C@H](CN[C@@H]2C(=O)N[C@H]([C@H](C)Cl)[C@H]2OC(SC)[C@H](O)[C@H](O)C2O)C1` (some centres unmarked) [FSA-510065]: the MIC is over 64 µg/mL.

The record behind these values is US20220073554A1, “LINCOSAMIDE ANTIBIOTICS AND USES THEREOF” (President and Fellows of Harvard College, priority 2017, published 2022).
